Results reported in patent US8623896B2, “Insecticidal compounds” (Syngenta Crop Protection, LLC, priority 2007, dated 2014).

Legend:
Assay type in all cases: in vivo
Settings in all cases: same protocol, 200 ppm
[1] = system: Spodoptera littoralis (Egyptian Cotton Leafworm); assay: Spodoptera littoralis cotton leaf disc spray test
Excerpt: Cotton leaf discs were placed on agar in a 24-well microtiter plate and sprayed with test solutions at an application rate of 200 ppm. After drying, the leaf discs were infested with 5 L1 larvae. The samples were checked for mortality, feeding behavior, and growth regulation 3 days after treatment (DAT).

[2] = system: Heliothis virescens (Tobacco Budworm); assay: Heliothis virescens egg test on artificial diet
Procedure: Eggs (0-24 h old) were placed in 24-well microtiter plate on artificial diet and treated with test solutions at an application rate of 200 ppm (concentration in well 18 ppm) by pipetting. After an incubation period of 4 days, samples were checked for egg mortality, larval mortality, and growth regulation.

[3] = system: Tetranychus urticae (Two-Spotted Spider Mite); assay: Tetranychus urticae bean leaf disc spray test
Excerpt: Bean leaf discs on agar in 24-well microtiter plates were sprayed with test solutions at an application rate of 200 ppm. After drying, the leaf discs are infested with mite populations of mixed ages. 8 days later, discs are checked for egg mortality, larval mortality, and adult mortality.

[4] = system: Diabrotica balteata (Corn Root Worm); assay: Diabrotica balteata larvae test on artificial diet
Procedure: (§1) A 24-well microtiter plate (MTP) with artificial diet was treated with test solutions at an application rate of 200 ppm (concentration in well 18 ppm) by pipetting. After drying, the MTP's were infested with L2 larvae (6-10 per well). After an incubation period of 5 days, samples were checked for larval mortality and growth regulation.

[5] = system: Plutella xylostella (Diamond Back Moth); assay: Plutella xylostella larvae test on artificial diet
Procedure: as §1, with “24-well” for “A 24-well”, “(7-12” for “(6-10”, “6” for “5”

[6] = system: Thrips tabaci (Onion Trips); assay: Thrips tabaci sunflower leaf disc spray test

Measured: effect on mortality, feeding behavior, or growth regulation

Cc1cc(C2=NOC(c3cc(Cl)cc(Cl)c3)(C(F)(F)F)C2)ccc1C(=O)NCC1CCN1Cc1ccccc1 (stereo not drawn) [B2]
little or no effect: all assays above

CC1(NC(=O)c2ccc(C3=NOC(c4cc(Cl)cc(Cl)c4)(C(F)(F)F)C3)cc2C#N)CSC1 (stereo not drawn) [A18]
little or no effect: all assays above

N#Cc1cc(C2=NOC(c3cc(Cl)cc(Cl)c3)(C(F)(F)F)C2)ccc1C(=O)NC1CSC1 (stereo not drawn) [A19]
little or no effect: all assays above
